The record followed here is PMC8069501, “Identification of Vinyl Sulfone Derivatives as EGFR Tyrosine Kinase Inhibitor: In Vitro and In Silico Studies” (Molecules, 2021).

As a reminder, the IC50 is the concentration needed to halve the response being measured. Read a low IC50 as inhibition by little substance.

Format in all cases: biochemical
For one assay, the target named is T1, JAK3 (Homo sapiens, UniProt P52333).
T1 sequence (P52333 1-1124): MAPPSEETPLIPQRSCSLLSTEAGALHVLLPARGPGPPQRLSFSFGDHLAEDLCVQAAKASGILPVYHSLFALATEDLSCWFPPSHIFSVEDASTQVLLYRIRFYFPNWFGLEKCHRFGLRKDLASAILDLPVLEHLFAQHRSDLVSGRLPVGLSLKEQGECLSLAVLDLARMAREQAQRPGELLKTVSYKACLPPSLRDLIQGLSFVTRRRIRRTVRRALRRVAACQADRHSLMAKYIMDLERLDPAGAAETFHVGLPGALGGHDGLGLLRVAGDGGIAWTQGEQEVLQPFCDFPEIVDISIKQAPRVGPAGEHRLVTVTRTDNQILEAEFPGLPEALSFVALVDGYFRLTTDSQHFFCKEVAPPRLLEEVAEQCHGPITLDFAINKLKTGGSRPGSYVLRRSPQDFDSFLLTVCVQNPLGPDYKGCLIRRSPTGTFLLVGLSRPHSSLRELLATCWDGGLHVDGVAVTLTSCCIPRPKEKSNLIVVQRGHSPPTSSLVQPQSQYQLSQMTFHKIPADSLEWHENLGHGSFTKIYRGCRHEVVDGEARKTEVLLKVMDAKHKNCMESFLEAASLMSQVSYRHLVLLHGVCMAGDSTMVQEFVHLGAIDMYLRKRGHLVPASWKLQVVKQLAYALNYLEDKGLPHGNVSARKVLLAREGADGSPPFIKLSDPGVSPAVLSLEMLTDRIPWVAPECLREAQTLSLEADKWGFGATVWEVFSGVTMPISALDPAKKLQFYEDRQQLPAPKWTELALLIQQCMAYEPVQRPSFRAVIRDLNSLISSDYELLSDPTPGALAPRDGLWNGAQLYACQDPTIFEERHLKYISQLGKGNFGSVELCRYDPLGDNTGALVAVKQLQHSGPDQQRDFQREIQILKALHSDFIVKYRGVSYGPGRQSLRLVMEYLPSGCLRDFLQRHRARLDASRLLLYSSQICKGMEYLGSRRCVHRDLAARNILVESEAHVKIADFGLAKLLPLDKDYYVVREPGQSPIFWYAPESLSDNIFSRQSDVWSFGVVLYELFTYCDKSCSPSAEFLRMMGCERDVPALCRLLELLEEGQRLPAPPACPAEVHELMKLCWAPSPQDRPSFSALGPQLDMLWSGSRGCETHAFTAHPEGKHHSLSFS
As to the kind of experiment: kinase inhibition assay (ADP-Glo). Background: ADP-Glo turns the ADP formed in a reaction into a luminescent signal.

The target of assay [1] is T2, EGFR-TK (epidermal growth factor receptor tyrosine kinase) (Homo sapiens, UniProt P00533).
T2 construct: tyrosine kinase (TK) domain
As to the kind of experiment: ADP-Glo kinase assay.

The target in another assay is T3, HER2 (Homo sapiens, UniProt P04626).
T3 construct: gene ERBB2
Put plainly: kinase inhibition assay (ADP-Glo).

T2 sequence (P00533 712-979 limits assumed): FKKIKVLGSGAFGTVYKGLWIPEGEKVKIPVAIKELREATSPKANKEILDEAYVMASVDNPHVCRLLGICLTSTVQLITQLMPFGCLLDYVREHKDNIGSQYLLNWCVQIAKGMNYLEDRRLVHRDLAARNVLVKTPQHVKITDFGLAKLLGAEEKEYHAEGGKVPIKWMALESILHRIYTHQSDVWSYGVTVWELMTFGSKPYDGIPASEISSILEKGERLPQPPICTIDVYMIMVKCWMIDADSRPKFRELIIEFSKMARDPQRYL
T3 sequence (P04626 23-1255): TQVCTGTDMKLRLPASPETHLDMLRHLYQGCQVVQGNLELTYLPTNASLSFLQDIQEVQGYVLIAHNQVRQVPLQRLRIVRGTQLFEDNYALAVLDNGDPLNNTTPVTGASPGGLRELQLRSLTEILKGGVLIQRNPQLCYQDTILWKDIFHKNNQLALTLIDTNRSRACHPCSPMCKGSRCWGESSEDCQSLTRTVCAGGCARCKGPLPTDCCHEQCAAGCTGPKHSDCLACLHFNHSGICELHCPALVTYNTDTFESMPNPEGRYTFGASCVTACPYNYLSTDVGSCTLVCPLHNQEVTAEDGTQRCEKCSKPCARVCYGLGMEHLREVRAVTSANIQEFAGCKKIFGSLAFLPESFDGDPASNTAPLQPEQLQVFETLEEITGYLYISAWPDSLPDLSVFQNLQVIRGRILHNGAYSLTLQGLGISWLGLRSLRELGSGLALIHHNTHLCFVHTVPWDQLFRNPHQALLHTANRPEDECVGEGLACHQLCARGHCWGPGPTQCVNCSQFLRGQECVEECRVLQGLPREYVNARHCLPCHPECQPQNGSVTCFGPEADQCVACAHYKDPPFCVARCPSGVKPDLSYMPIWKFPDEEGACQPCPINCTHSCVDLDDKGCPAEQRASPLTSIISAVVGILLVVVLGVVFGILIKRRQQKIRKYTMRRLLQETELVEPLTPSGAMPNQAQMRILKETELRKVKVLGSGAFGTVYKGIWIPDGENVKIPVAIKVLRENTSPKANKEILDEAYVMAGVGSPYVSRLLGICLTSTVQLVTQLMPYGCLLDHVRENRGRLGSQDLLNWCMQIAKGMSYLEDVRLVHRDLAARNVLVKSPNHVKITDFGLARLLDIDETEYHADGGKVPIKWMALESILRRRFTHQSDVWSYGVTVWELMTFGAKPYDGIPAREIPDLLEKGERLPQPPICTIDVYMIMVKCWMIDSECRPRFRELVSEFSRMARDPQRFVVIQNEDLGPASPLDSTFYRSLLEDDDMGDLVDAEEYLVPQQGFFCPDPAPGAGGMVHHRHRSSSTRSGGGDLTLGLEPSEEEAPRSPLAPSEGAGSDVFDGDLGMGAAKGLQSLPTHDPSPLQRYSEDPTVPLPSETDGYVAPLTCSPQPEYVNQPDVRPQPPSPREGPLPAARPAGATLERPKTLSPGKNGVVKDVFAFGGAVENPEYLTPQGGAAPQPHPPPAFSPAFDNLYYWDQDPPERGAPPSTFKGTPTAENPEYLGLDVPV

As for `COc1cc(/C=C/S(=O)(=O)c2ccccc2)cc(OC)c1OC` [VF16], the 50% inhibitory concentration (IC50) against JAK3 came to 0.158 ± 0.00475 µM; in assay [1] it was 0.00785 ± 0.00088 µM; at HER2 it was 0.312 ± 0.00028 µM.
